Seven molecules from ChEMBL document CHEMBL1134833, “Convergent synthesis of potent peptide inhibitors of the Grb2-SH2 domain by palladium catalyzed coupling of a terminal alkyne” (Bioorg Med Chem Lett, 2001) can be followed below.

Growth factor receptor-bound protein 2, sequence (P62993 whole entry): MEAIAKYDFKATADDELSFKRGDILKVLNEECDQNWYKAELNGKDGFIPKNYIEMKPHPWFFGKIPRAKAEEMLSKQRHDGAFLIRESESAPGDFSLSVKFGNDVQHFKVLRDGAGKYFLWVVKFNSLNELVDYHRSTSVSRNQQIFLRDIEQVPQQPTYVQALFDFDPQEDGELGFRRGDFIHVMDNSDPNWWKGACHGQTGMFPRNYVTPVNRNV

The test has as its target Growth factor receptor-bound protein 2 (Homo sapiens, UniProt P62993). In words: Inhibitory concentration required against Src homology (SH2) domain of Growth factor receptor bound protein 2 by ELISA binding assay.
For orientation: IC50 means the midpoint of a concentration-inhibition curve. `COc1cc2cccc(CCCNC(=O)[C@H](CC(N)=O)NC(=O)C3(NC(=O)[C@H](Cc4ccc(CP(=O)(O)O)cc4)NC(C)=O)CCCCC3)c2cc1OC` had an IC50 of 84.4 nM. With `CC(=O)N[C@@H](Cc1ccc(CP(=O)(O)O)cc1)C(=O)NC1(C(=O)N[C@@H](CC(N)=O)C(=O)NCCCc2ccc3cccc(O)c3c2)CCCCC1`, the IC50 is 11.1 nM. For the molecule `CC(=O)N[C@@H](Cc1ccc(CP(=O)(O)O)cc1)C(=O)NC1(C(=O)N[C@@H](CC(N)=O)C(=O)NCCCc2cccc3ccccc23)CCCCC1`, the IC50 worked out at 42.9 nM.

Turning to `CC(=O)N[C@@H](Cc1ccc(CP(=O)(O)O)cc1)C(=O)NC1(C(=O)N[C@@H](CC(N)=O)C(=O)NCCCc2cccc3ccc(O)cc23)CCCCC1`, the IC50 was 24.6 nM. On to `CC(=O)N[C@@H](Cc1ccc(CP(=O)(O)O)cc1)C(=O)NC1(C(=O)N[C@@H](CC(N)=O)C(=O)NCCCc2cccc3cc(O)ccc23)CCCCC1`, for which the IC50 was 42.7 nM. In the case of `COc1ccc2c(CCCNC(=O)[C@H](CC(N)=O)NC(=O)C3(NC(=O)[C@H](Cc4ccc(CP(=O)(O)O)cc4)NC(C)=O)CCCCC3)cccc2c1`, the IC50 came to 130 nM.

Consider `CC(=O)N[C@@H](Cc1ccc(CP(=O)(O)O)cc1)C(=O)NC1(C(=O)N[C@@H](CC(N)=O)C(=O)NCCCc2c(O)ccc3ccccc23)CCCCC1` [CGP-78850], for which the IC50 came out at 43 nM.
